This is an account of results in patent US20250188092A1, “RIFAMYCIN ANALOGS” (THE REGENTS OF THE UNIVERSITY OF MICHIGAN, priority 2021, published 2025).

One data set concerns MTB H37Rv ATCC 27294. In words: MIC, microplate Alamar Blue assay (MABA). The conditions noted are these: for MIC / MIC90: Mycobacterium tuberculosis, MTB H37Rv ATCC 27294, microplate Alamar Blue assay, lowest concentration giving ≥90% reduction in fluorescence; for MIC: read-out: MIC90 MABA. It counts as cell-based, Mycobacterium tuberculosis. (Alamar Blue is a resazurin reagent that responds to reducing activity.)

The subject of a further data set is VERO cells (ATCC CRL-81). Kind of data set: Vero cell toxicity. The class given is cell-based. The conditions noted are these: Chlorocebus sabaeus, Vero; 72 hours exposure. Here is the method: Cytotoxicity for a mammalian cell line was determined by exposing VERO cells (ATCC CRL-81) to serial dilutions of test compounds for 72 hours, followed by addition of resazurin and measurement of fluorescence after 4 hours incubation (Choules, et al., Antimnicrob. Agents Chemother. 2019, 63, e02204-02218).

A further data set concerns DPX2 cells. The conditions noted are these: for DPX2 Viability @ 6.25 μM: 24 h; for DPX2 Viability @ 25 μM: human.

Molecules are shown by their SMILES. pIC50: −log10 of the molar value. ≈ marks a conversion by molar mass, not a printed value.

In the case of `CO[C@H]1/C=C/O[C@@]2(C)Oc3c(C)c(O)c4c(=O)c(c5oc6cc(N7CCN(C(=O)C(C)(C)C)CC7)cc(OCc7ccc(CN8CCOCC8)cc7)c6nc-5c4c3C2=O)NC(=O)/C(C)=C\C=C\[C@H](C)[C@H](O)[C@@H](C)[C@@H](O)[C@@H](C)[C@H](OC(C)=O)[C@@H]1C` [Compound 17f, (7S,9E,11S,12R,13S,14R,15R,16R,17S,18S,19E,21Z)-30-[4-(2,2-Dimethylpropanoyl)-piperazin-1-yl]-2,15,17-trihydroxy-11-methoxy-3,7,12,14,16,18,22-heptamethyl-32-({4-[(morpholin-4-yl)methyl]phenyl}methoxy)-6,23,37-trioxo-8,27,38-trioxa-24,34-diazahexacyclo[23.11.1.1^4,7.0^5,36.0^26,35.0^28,33]octatriaconta-1(36)2,4,9,19,21,25,28,30,32,34-undecaen-13-yl acetate], in the data set with MTB H37Rv ATCC 27294, the “MIC90 MABA Rel to RMP” value is listed as 1.0 and the MIC was found to be 0.027 µM. Besides, the pIC50 with VERO cells (ATCC CRL-81) is under 5.00. In addition, in the data set on DPX2 cells, the “DPX2 Viability @ 6.25 μM” value came to 85% and the “DPX2 Viability @ 25 μM” value came out at 71%.

On to `CCC(=O)N1CCN(c2cc(OCc3ccc(CN4CCOCC4)cc3)c3nc4c5c6c7c(C)c(O)c5c(=O)c(c-4oc3c2)NC(=O)/C(C)=C\C=C\[C@H](C)[C@H](O)[C@@H](C)[C@@H](O)[C@@H](C)[C@H](OC(C)=O)[C@H](C)[C@@H](OC)/C=C/O[C@@](C)(O7)C6=O)CC1` [Compound 17g, (7S,9E,11S,12R,13S,14R,15R,16R,17S,18S,19E,21Z)-2,15,17-Trihydroxy-11-methoxy-3,7,12,14,16,18,22-heptamethyl-32-({4-[(morpholin-4-yl)methyl]phenyl}methoxy)-6,23,37-trioxo-30-(4-propanoylpiperazin-1-yl)-8,27,38-trioxa-24,34-diazahexacyclo-[23.11.1.1^4,7.0^5,36.0^26,35.0^28,33]octatriaconta-1(36)2,4,9,19,21,25,28,30,32,34-undecaen-13-yl acetate], for which, in the data set with MTB H37Rv ATCC 27294, the “MIC90 MABA Rel to RMP” value is on record as 0.4 and the MIC90 is 0.012 µM. Also, the pIC50 in the data set with VERO cells (ATCC CRL-81) is under 5.00. Further, in the data set with DPX2 cells, the “DPX2 Viability @ 6.25 μM” value turned out to be 117% and the “DPX2 Viability @ 25 μM” value is recorded as 56%.

Turning to `CO[C@H]1/C=C/O[C@@]2(C)Oc3c(C)c(O)c4c(=O)c(c5oc6cc(N7CCN(C8CCN(C)CC8)CC7)cc(OCc7ccc(CN8CCOCC8)cc7)c6nc-5c4c3C2=O)NC(=O)/C(C)=C\C=C\[C@H](C)[C@H](O)[C@@H](C)[C@@H](O)[C@@H](C)[C@H](OC(C)=O)[C@@H]1C` [Compound 17h, (7S,9E,11S,12R,13S,14R,15R,16R,17S,18S,19E,21Z)-2,15,17-trihydroxy-11-methoxy-3,7,12,14,16,18,22-heptamethyl-30-[4-(1-methylpiperidin-4-yl)piperazin-1-yl]-32-{[4-(morpholin-4-ylmethyl)phenyl]methoxy}-6,23,37-trioxo-8,27,38-trioxa-24,34-diazahexacyclo-[23.11.1.1^4,7.0^5,36.0^26,35.0^28,33]octatriaconta-1,3,5(36)9,19,21,25,28,30,32,34-undecaen-13-yl acetate], in the data set on MTB H37Rv ATCC 27294, the “MIC90 MABA Rel to RMP” value is 1.3 and the MIC90 came to 0.035 µM. For the same compound, the pIC50 with VERO cells (ATCC CRL-81) was under 5.00. For the same compound, in the data set on DPX2 cells, the “DPX2 Viability @ 6.25 μM” value amounted to 94% and the “DPX2 Viability @ 25 μM” value is on record as 83%.

With `CO[C@H]1/C=C/O[C@@]2(C)Oc3c(C)c(O)c4c(=O)c(c5oc6cc(N7CCN(CC(=O)O)CC7)cc(OCc7ccc(CN8CCOCC8)cc7)c6nc-5c4c3C2=O)NC(=O)/C(C)=C\C=C\[C@H](C)[C@H](O)[C@@H](C)[C@@H](O)[C@@H](C)[C@H](OC(C)=O)[C@@H]1C` [Compound 17i], in the data set on MTB H37Rv ATCC 27294, the “MIC90 MABA Rel to RMP” value worked out at 1.0 and the MIC worked out at 0.026 µM (≈ 0.0294 µg/mL). For the same compound, the pIC50 in the data set with VERO cells (ATCC CRL-81) is under 5.00. For the same compound, in the data set with DPX2 cells, the “DPX2 Viability @ 6.25 μM” value is given as 106% and the “DPX2 Viability @ 25 μM” value was 100%.

Regarding `CO[C@H]1/C=C/O[C@@]2(C)Oc3c(C)c(O)c4c(=O)c(c5oc6cc(N7CCS(=O)(=O)CC7)cc(OCc7ccc(CN8CCOCC8)cc7)c6nc-5c4c3C2=O)NC(=O)/C(C)=C\C=C\[C@H](C)[C@H](O)[C@@H](C)[C@@H](O)[C@@H](C)[C@H](OC(C)=O)[C@@H]1C` [Compound 17j, (7S,9E,11S,12R,13S,14R,15R,16R,17S,18S,19E,21Z)-30-(1,1-dioxothiomorpholin-4-yl)-2,15,17-trihydroxy-11-methoxy-3,7,12,14,16,18,22-heptamethyl-32-([4-(morpholin-4-ylmethyl)phenyl]methoxy)-6,23,37-trioxo-8,27,38-trioxa-24,34-diazahexacyclo-[23.11.1.1^4,7.0^5,36.0^26,35.0^28,33]octatriaconta-1,3,5(36)9,19,21,25,28,30,32,34-undecaen-13-yl acetate], in the data set on MTB H37Rv ATCC 27294, the MIC was over 0.01 µM. The pIC50 with VERO cells (ATCC CRL-81) was under 5.00. Moreover, in the data set on DPX2 cells, the “DPX2 Viability @ 6.25 μM” value is listed as 2% and the “DPX2 Viability @ 25 μM” value was 126%.

Turning to `CO[C@H]1/C=C/O[C@@]2(C)Oc3c(C)c(O)c4c(=O)c(c5oc6cc(N7CCC(C(=O)O)CC7)cc(OCc7ccc(CN8CCOCC8)cc7)c6nc-5c4c3C2=O)NC(=O)/C(C)=C\C=C\[C@H](C)[C@H](O)[C@@H](C)[C@@H](O)[C@@H](C)[C@H](OC(C)=O)[C@@H]1C` [Compound 17k], in the data set with MTB H37Rv ATCC 27294, the “MIC90 MABA Rel to RMP” value was determined as 11 and the MIC was 0.3 µM (≈ 0.335 µg/mL). The same compound had a pIC50 with VERO cells (ATCC CRL-81) of under 5.00. In addition, in the data set on DPX2 cells, the “DPX2 Viability @ 6.25 μM” value is recorded as 131% and the “DPX2 Viability @ 25 μM” value is on record as 34%.

In the case of `CO[C@H]1/C=C/O[C@@]2(C)Oc3c(C)c(O)c4c(=O)c(c5oc6cc(N7CCN(C(=O)c8ccccc8)CC7)cc(OCc7ccc(CN8CCOCC8)cc7)c6nc-5c4c3C2=O)NC(=O)/C(C)=C\C=C\[C@H](C)[C@H](O)[C@@H](C)[C@@H](O)[C@@H](C)[C@H](OC(C)=O)[C@@H]1C` [Compound 17m, (7S,9E,11S,12R,13S,14R,15R,16R,17S,18S,19E,21Z)-30-(4-benzoylpiperazin-1-yl)-2,15,17-trihydroxy-1-methoxy-3,7,12,14,16,18,22-heptamethyl-32-{[4-(morpholin-4-ylmethyl)phenyl]methoxy}-6,23,37-trioxo-8,27,38-trioxa-24,34-diazahexacyclo-[23.11.1.1^4,7.0^5,36.0^26,35.0^28,33]octatriaconta-1,3,5(36)9,19,21,25,28,30,32,34-undecaen-13-yl acetate], in the data set on MTB H37Rv ATCC 27294, the “MIC90 MABA Rel to RMP” value is 0.34 and the MIC90 was 0.017 µM. The compound also gave a pIC50 in the data set on VERO cells (ATCC CRL-81) of under 5.00. Also, in the data set on DPX2 cells, the “DPX2 Viability @ 6.25 μM” value stood at 89% and the “DPX2 Viability @ 25 μM” value is on record as 78%.

With `CO[C@H]1/C=C/O[C@@]2(C)Oc3c(C)c(O)c4c(=O)c(c5oc6cc(N7CCN(C(=O)c8ccncc8)CC7)cc(OCc7ccc(CN8CCOCC8)cc7)c6nc-5c4c3C2=O)NC(=O)/C(C)=C\C=C\[C@H](C)[C@H](O)[C@@H](C)[C@@H](O)[C@@H](C)[C@H](OC(C)=O)[C@@H]1C` [Compound 17n, 7S,9E,11S,12R,13S,14R,15R,16R,17S,18S,19E,21Z)-2,15,17-trihydroxy-11-methoxy-3,7,12,14,16,18,22-heptamethyl-32-{[4-(morpholin-4-ylmethyl)phenyl]methoxy}-6,23,37-trioxo-30-{4-[(pyridin-4-yl)carbonyl]piperazin-1-yl}-8,27,38-trioxa-24,34-diazahexacyclo[23.11.1.1^4,7.0^5,36.0^26,35.0^28,33]octatriaconta-1,3,5(36)9,19,21,25,28,30,32,34-undecaen-13-yl acetate], in the data set with MTB H37Rv ATCC 27294, the “MIC90 MABA Rel to RMP” value was 1.5 and the MIC90 is 0.073 µM. This compound had a pIC50 in the data set with VERO cells (ATCC CRL-81) of under 5.00. For the same compound, in the data set on DPX2 cells, the “DPX2 Viability @ 6.25 μM” value worked out at 102% and the “DPX2 Viability @ 25 μM” value amounted to 98%.

In the case of `CO[C@H]1/C=C/O[C@@]2(C)Oc3c(C)c(O)c4c(=O)c(c5oc6cc(N7CCOC(CN(C)C)C7)cc(OCc7ccc(CN8CCOCC8)cc7)c6nc-5c4c3C2=O)NC(=O)/C(C)=C\C=C\[C@H](C)[C@H](O)[C@@H](C)[C@@H](O)[C@@H](C)[C@H](OC(C)=O)[C@@H]1C` (stereo partly drawn) [Compound 17o, (7S,9E,11S,12R,13S,14R,15R,16R,17S,18S,19E,21Z)-30-{2-[(dimethylamino)methyl]morpholin-4-yl}-2,15,17-trihydroxy-11-methoxy-3,7,12,14,16,18,22-heptamethyl-32-{[4-(morpholin-4-ylmethyl)phenyl]methoxy}-6,23,37-trioxo-8,27,38-trioxa-24,34-diazahexacyclo[23.11.1.1^4,7.0^5,36.0^26,35.0^28,33]octatriaconta-1,3,5(36)9,19,21,25,28,30,32,34-undecaen-13-yl acetate], in the data set on MTB H37Rv ATCC 27294, the “MIC90 MABA Rel to RMP” value stood at 1.1 and the MIC90 stood at 0.055 µM. In addition, the pIC50 with VERO cells (ATCC CRL-81) was under 5.00. For the same compound, in the data set with DPX2 cells, the “DPX2 Viability @ 6.25 μM” value turned out to be 96% and the “DPX2 Viability @ 25 μM” value amounted to 42%.

Turning to `CO[C@H]1/C=C/O[C@@]2(C)Oc3c(C)c(O)c4c(=O)c(c5oc6cc(N7CCN(CC(C)C)CC7)cc(OCc7ccc(CN8CCN(C)CC8)cc7)c6nc-5c4c3C2=O)NC(=O)/C(C)=C\C=C\[C@H](C)[C@H](O)[C@@H](C)[C@@H](O)[C@@H](C)[C@H](OC(C)=O)[C@@H]1C` [Compound 17p, (7S,9E,11S,12R,13S,14R,15R,16R,17S,18S,19E,21Z)-2,15,17-trihydroxy-11-methoxy-3,7,12,14,16,18,22-heptamethyl-32-({4-[(4-methylpiperazin-1-yl)methyl]phenyl}methoxy)-30-[4-(2-methylpropyl)piperazin-1-yl]-6,23,37-trioxo-8,27,38-trioxa-24,34-diazahexacyclo-[23.11.1.1^4,7.0^5,36.0^26,35.0^28,33]octatriaconta-1,3,5(36)9,19,21,25,28,30,32,34-undecaen-13-yl acetate], the MIC90 against MTB H37Rv ATCC 27294 turned out to be 0.0094 µM. Also, in the data set on VERO cells (ATCC CRL-81), the pIC50 was under 5.00. Moreover, in the data set on DPX2 cells, the “DPX2 Viability @ 6.25 μM” value amounted to 116% and the “DPX2 Viability @ 25 μM” value is reported as 80%.

One may read the pIC50 as the negative decadic logarithm of the IC50, by convention in mol/L. High values mean a low IC50, low ones a high IC50. As usually defined, the MIC90 is the lowest concentration that inhibits either 90% of growth or 90% of the strains tested, depending on the study. A low value points to higher susceptibility.
